Experimental findings from PubChem BioAssay AID2619 (Sanford-Burnham Center for Chemical Genomics, 2010) are described below.

The test relates to MDA-MB-435 TRAIL sensitization, ATPlite luminescence, 24 h. The experiment in a line: PubChem AID 2619.

As to `CSc1nc(-c2ccc(C)cc2)nc(C(Cl)Cl)n1`, the cytotoxicity with TRAIL (at 10 µM (top of the series)) was 82%. Further, the cytotoxicity (compound alone without TRAIL, at 10 µM, stronger effect = higher value) came to 1%.
